Results taken from PMC11768739 (Viruses, 2025).
Where two headings read alike, the source gives them in different places.

What was measured:
[1] = molecular target: T1, EV68-3C protease (enterovirus D68, UniProt A1E4A3); assay: FRET peptide cleavage assay (DABCYL/EDANS 10-mer, 2C/3A site); format: biochemical
[2] = molecular target: T1, EV68-3C protease; assay: as above; format: biochemical; conditions: covalent (irreversible); 60 min preincubation; 25 nM enzyme; 10 μM substrate; 50 mM HEPES pH 7.5, 100 mM NaCl, 3% DMSO; unreliable is not stated

T1 sequence (A1E4A3 entry or part of it): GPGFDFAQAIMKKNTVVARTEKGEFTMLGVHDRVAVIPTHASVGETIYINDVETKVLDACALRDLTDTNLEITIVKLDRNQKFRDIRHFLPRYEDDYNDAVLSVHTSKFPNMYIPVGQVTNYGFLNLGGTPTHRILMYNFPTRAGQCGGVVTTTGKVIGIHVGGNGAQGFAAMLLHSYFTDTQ

| Structure (SMILES) | IC50 [1] [nM] | IC50 [2] [nM] |
| --- | --- | --- |
| COc1cccc2[nH]c(C(=O)N[C@@H](CC(C)C)C(=O)N[C@@H](C[C@@H]3CCNC3=O)C(=O)CO)cc12 [PF-00835231] | 1800 ± 200 |  |
| Cn1cnc(Cn2c(=O)[nH]/c(=N\c3cc4cn(C)nc4cc3Cl)n(Cc3cc(F)c(F)cc3F)c2=O)n1 [ensitrelvir] | > 10000 |  |
| CC(C)(C)[C@H](NC(=O)C(F)(F)F)C(=O)N1C[C@H]2[C@@H]([C@H]1C(=O)N[C@H](C#N)C[C@@H]1CCNC1=O)C2(C)C [nirmatrelvir] | > 10000 |  |
| CCOC(=O)/C=C/[C@H](C[C@@H]1CCNC1=O)NC(=O)[C@@H](CC(=O)[C@@H](NC(=O)c1cc(C)on1)C(C)C)Cc1ccc(F)cc1 [rupintrivir] |  | 7.8 ± 0.6 |
